Laboratory results taken from PubChem BioAssay AID330 (DTP/NCI, 2004).
Inconclusive results and toxic doses are left out. Rule for the calls: active = survival T/C of 150% or more; inactive = T/C below 125% in these data.

System: P388 leukemia ip, CD2F1 mice, survival T/C
Experiment: NCI In Vivo Anticancer Drug Screen. Data for tumor model P388 Leukemia (intraperitoneal) in CD2F1 (CDF1) mice
Details: endpoint: median survival time, higher = longer survival
How it was run: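 Mice carrying the transplanted tumor received test compound or vehicle. Survival was recorded in each group, and the value is the treated-group measurement divided by that of the vehicle-treated control group.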

[1] = dose: 50.0 mg/kg/injection, schedule: Q01DX009 (ip), vehicle: saline with Tween-80
[2] = dose: 100.0 mg/kg/injection, schedule: Q01DX009 (ip), vehicle: saline with Tween-80
[3] = dose: 200.0 mg/kg/injection, schedule: Q01DX009 (ip), vehicle: saline with Tween-80
[4] = dose: 400.0 mg/kg/injection, schedule: Q01DX009 (ip), vehicle: saline with Tween-80
[5] = dose: 50.0 mg/kg/injection, schedule: Q01DX005 (ip), vehicle: Klucel (hydroxypropylcellulose) (HPC)
[6] = dose: 100.0 mg/kg/injection, schedule: Q01DX005 (ip), vehicle: Klucel (hydroxypropylcellulose) (HPC)
[7] = dose: 200.0 mg/kg/injection, schedule: Q01DX005 (ip), vehicle: Klucel (hydroxypropylcellulose) (HPC)
[8] = dose: 25.0 mg/kg/injection, schedule: Q04DX002 (ip), vehicle: saline with Tween-80
[9] = dose: 50.0 mg/kg/injection, schedule: Q04DX002 (ip), vehicle: saline with Tween-80
[10] = dose: 100.0 mg/kg/injection, schedule: Q04DX002 (ip), vehicle: saline with Tween-80
[11] = dose: 12.5 mg/kg/injection, schedule: Q01DX009 (ip), vehicle: water
[12] = dose: 25.0 mg/kg/injection, schedule: Q01DX009 (ip), vehicle: water
[13] = dose: 50.0 mg/kg/injection, schedule: Q01DX009 (ip), vehicle: water

Measured: T/C

CC#CC(=O)OC
inactive: [1] 94 % of control | [2] 101 % of control | [3] 98 % of control | [4] 98 % of control

COc1ccc(NS(=O)(=O)c2ccc(N=Cc3c4ccccc4nc4ccccc34)cc2)nn1
inactive: dose: 12.5 mg/kg/injection, schedule: Q04DX002 (ip), vehicle: Klucel (hydroxypropylcellulose) (HPC) 96 % of control | dose: 25.0 mg/kg/injection, schedule: Q04DX002 (ip), vehicle: Klucel (hydroxypropylcellulose) (HPC) 96 % of control | dose: 50.0 mg/kg/injection, schedule: Q04DX002 (ip), vehicle: Klucel (hydroxypropylcellulose) (HPC) 89 % of control | dose: 100.0 mg/kg/injection, schedule: Q04DX002 (ip), vehicle: Klucel (hydroxypropylcellulose) (HPC) 96 % of control | dose: 200.0 mg/kg/injection, schedule: Q04DX002 (ip), vehicle: Klucel (hydroxypropylcellulose) (HPC) 89 % of control | dose: 400.0 mg/kg/injection, schedule: Q04DX002 (ip), vehicle: Klucel (hydroxypropylcellulose) (HPC) 89 % of control

NC(=S)/N=C(/N)NC(=O)c1ccccc1
inactive: dose: 25.0 mg/kg/injection, schedule: Q01DX009 (ip), vehicle: saline with Tween-80 87 % of control | [1] 87 % of control | [2] 86 % of control | [3] 110 % of control

CC(C)CC(=O)CC(=O)C(C)(C)C.CC(C)CC(=O)CC(=O)C(C)(C)C.CC(C)CC(=O)CC(=O)C(C)(C)C.[Cr]
inactive: dose: 50.0 mg/kg/injection, schedule: Q01DX009 (ip), vehicle: distilled water + alcohol 97 % of control | dose: 100.0 mg/kg/injection, schedule: Q01DX009 (ip), vehicle: distilled water + alcohol 107 % of control | dose: 200.0 mg/kg/injection, schedule: Q01DX009 (ip), vehicle: distilled water + alcohol 103 % of control

O=C1C(N=Nc2ccc([N+](=O)[O-])cc2)Sc2nc3ccccc3n21 (stereo unspecified)
inactive: dose: 7.5 mg/kg/injection, schedule: Q01DX005 (ip), vehicle: Klucel (hydroxypropylcellulose) (HPC) 99 % of control | dose: 15.0 mg/kg/injection, schedule: Q01DX005 (ip), vehicle: Klucel (hydroxypropylcellulose) (HPC) 92 % of control | dose: 30.0 mg/kg/injection, schedule: Q01DX005 (ip), vehicle: Klucel (hydroxypropylcellulose) (HPC) 90 % of control

COc1cccc2cc3c(NCCCN(C)C)nnc(NCCCN(C)C)c3cc12
inactive: dose: 7.5 mg/kg/injection, schedule: Q01DX005 (ip), vehicle: saline 105 % of control | dose: 15.0 mg/kg/injection, schedule: Q01DX005 (ip), vehicle: saline 98 % of control

CCN(CC)C(=S)SS(C)(=O)=O
inactive: dose: 25.0 mg/kg/injection, schedule: Q04DX003 (ip), vehicle: Klucel (hydroxypropylcellulose) (HPC) 99 % of control | dose: 50.0 mg/kg/injection, schedule: Q04DX003 (ip), vehicle: Klucel (hydroxypropylcellulose) (HPC) 107 % of control | dose: 100.0 mg/kg/injection, schedule: Q04DX003 (ip), vehicle: Klucel (hydroxypropylcellulose) (HPC) 107 % of control

O=c1[nH]cc(O)c(=O)[nH]1
inactive: dose: 167.0 mg/kg/injection, schedule: Q01DX009 (ip), vehicle: saline with Tween-80 95 % of control | dose: 267.0 mg/kg/injection, schedule: Q01DX009 (ip), vehicle: saline with Tween-80 113 % of control | [4] 104 % of control | dose: 600.0 mg/kg/injection, schedule: Q01DX009 (ip), vehicle: saline with Tween-80 109 % of control

CC1(C)CCCC(C)(C(=O)O)O1 (stereo unspecified)
inactive: dose: 60.0 mg/kg/injection, schedule: Q01DX005 (ip), vehicle: saline with Tween-80 104 % of control | dose: 120.0 mg/kg/injection, schedule: Q01DX005 (ip), vehicle: saline with Tween-80 101 % of control | dose: 240.0 mg/kg/injection, schedule: Q01DX005 (ip), vehicle: saline with Tween-80 104 % of control

NNC(=O)CS(=O)(=O)NCc1ccccc1
inactive: [5] 100 % of control | [6] 99 % of control | [7] 97 % of control

Brc1cnc2ccccn12
inactive: [1] 101 % of control | [2] 102 % of control | [3] 114 % of control

CC(=O)N(O)C(C)=O
inactive: dose: 50.0 mg/kg/injection, schedule: Q01DX005 (ip), vehicle: saline 100 % of control | dose: 100.0 mg/kg/injection, schedule: Q01DX005 (ip), vehicle: saline 104 % of control | dose: 200.0 mg/kg/injection, schedule: Q01DX005 (ip), vehicle: saline 107 % of control

COC(=O)C1(C)CCCC2(C)C3=CC(=O)OC3(OC)CCC12 (stereo unspecified)
inactive: dose: 2.5 mg/kg/injection, schedule: Q01DX009 (ip), vehicle: saline with Tween-80 107 % of control | dose: 5.0 mg/kg/injection, schedule: Q01DX009 (ip), vehicle: saline with Tween-80 101 % of control | dose: 10.0 mg/kg/injection, schedule: Q01DX009 (ip), vehicle: saline with Tween-80 103 % of control

O=C(OCCS(=O)(=O)CCOC(=O)ON1C(=O)CCC1=O)ON1C(=O)CCC1=O
inactive: [5] 109 % of control | [6] 109 % of control | [7] 115 % of control

COc1ccc(C(=O)/C=C/c2ccc3c(c2)OCO3)c(OCc2ccccc2)c1
inactive: dose: 3.75 mg/kg/injection, schedule: Q01DX009 (ip), vehicle: Klucel (hydroxypropylcellulose) (HPC) 98 % of control | dose: 7.5 mg/kg/injection, schedule: Q01DX009 (ip), vehicle: Klucel (hydroxypropylcellulose) (HPC) 99 % of control | dose: 15.0 mg/kg/injection, schedule: Q01DX009 (ip), vehicle: Klucel (hydroxypropylcellulose) (HPC) 98 % of control | dose: 30.0 mg/kg/injection, schedule: Q01DX009 (ip), vehicle: Klucel (hydroxypropylcellulose) (HPC) 94 % of control

CCS/C(=C/[P+](c1ccccc1)(c1ccccc1)c1ccccc1)SC
inactive: dose: 6.25 mg/kg/injection, schedule: Q01DX005 (ip), vehicle: saline with Tween-80 101 % of control

N#Cc1ccc2c(ccc3ncccc32)n1
inactive: [8] 100 % of control | [9] 100 % of control | [10] 101 % of control

Cc1c(C#N)c2nc(N)c3ccccc3n2c1C
inactive: [5] 101 % of control | [6] 106 % of control | [7] 106 % of control

O=C1CCNN1c1ccccc1
inactive: [11] 100 % of control | [12] 103 % of control | [13] 100 % of control | dose: 100.0 mg/kg/injection, schedule: Q01DX009 (ip), vehicle: water 103 % of control | dose: 200.0 mg/kg/injection, schedule: Q01DX009 (ip), vehicle: water 106 % of control

CCOC(=O)C1=C(C)/C(=C/c2[n-]c(Cl)c(C)c2C(=O)OCC)N=C1C.CCOC(=O)C1=C(C)/C(=C/c2[n-]c(Cl)c(C)c2C(=O)OCC)N=C1C.[Ni+2]
inactive: [5] 102 % of control | [6] 114 % of control | [7] 102 % of control

CNCCC(Oc1ccc(C(F)(F)F)cc1)c1ccccc1 (stereo unspecified)
inactive: [8] 106 % of control | [9] 106 % of control | [10] 106 % of control

CC(O)C(O)C(=O)O (stereo unspecified)
inactive: dose: 50.0 mg/kg/injection, schedule: Q01DX009 (ip), vehicle: saline 94 % of control | dose: 100.0 mg/kg/injection, schedule: Q01DX009 (ip), vehicle: saline 93 % of control | dose: 200.0 mg/kg/injection, schedule: Q01DX009 (ip), vehicle: saline 91 % of control | dose: 400.0 mg/kg/injection, schedule: Q01DX009 (ip), vehicle: saline 92 % of control

O=C(CCCCC(=O)NO)NO
inactive: dose: 50.0 mg/kg/injection, schedule: Q01DX009 (ip), vehicle: Klucel (hydroxypropylcellulose) (HPC) 102 % of control | dose: 100.0 mg/kg/injection, schedule: Q01DX009 (ip), vehicle: Klucel (hydroxypropylcellulose) (HPC) 105 % of control | dose: 200.0 mg/kg/injection, schedule: Q01DX009 (ip), vehicle: Klucel (hydroxypropylcellulose) (HPC) 105 % of control

COc1cccc(CN2CCNCC2)c1
inactive: dose: 6.25 mg/kg/injection, schedule: Q01DX009 (ip), vehicle: water 90 % of control | [11] 94 % of control | [12] 93 % of control | [13] 94 % of control

Nc1nc(F)nc2c1ncn2CC(O)CO (stereo unspecified)
inactive: dose: 50.0 mg/kg/injection, schedule: Q01DX005 (ip), vehicle: distilled water + alcohol 100 % of control | dose: 100.0 mg/kg/injection, schedule: Q01DX005 (ip), vehicle: distilled water + alcohol 101 % of control | dose: 200.0 mg/kg/injection, schedule: Q01DX005 (ip), vehicle: distilled water + alcohol 95 % of control

O=C(O)C1CC(=O)N(Cc2ccccc2)C1 (stereo unspecified)
inactive: dose: 100.0 mg/kg/injection, schedule: Q04DX003 (ip), vehicle: saline with Tween-80 95 % of control | dose: 200.0 mg/kg/injection, schedule: Q04DX003 (ip), vehicle: saline with Tween-80 100 % of control | dose: 400.0 mg/kg/injection, schedule: Q04DX003 (ip), vehicle: saline with Tween-80 100 % of control
